Reference: publication PMC3006138, “Fexinidazole – A New Oral Nitroimidazole Drug Candidate Entering Clinical Development for the Treatment of Sleeping Sickness” (PLoS Neglected Tropical Diseases, 2010)
Where “and” joins values, the source holds several entries; their conditions need not be identical. Identical values can stand only once. Like-named read-outs stand apart in the source and are kept apart here.

How the values were obtained:
[1] = Dog single-dose IV and oral pharmacokinetics; type: in vivo; conditions: dog, plasma; for AUC(0-t): read-out: AUC0-t(last)
Experimental: Pharmacokinetic Report for the study No. 0320-2007
Fexinidazole was given as IV and oral administrations to male Beagle dogs according to the […]
Dog ID Route Dose Formulation
IV dose was administered via the radial vein, the oral dose was administered by gastric […]
gavage. A washout period of […] was allowed between the IV (Day 1) and oral (Day 12) […]
4.2. Sample Collection and Handling
Blood was withdrawn from jugular vein and collected in heparinized plastic tubes kept on an […]
ice/water bath, then centrifuged at 1200g for 10 minutes at 4°C. Three aliquots of the […]
separated plasma (about 0.2 mL) was stored at -80°C until analysis for Fexinidazole and its […]
sulphone and sulphoxide metabolites. Blood was taken at pre-dose and 0.083 (5 minutes), […]
4.3. Bioanalytical Method
Plasma concentrations of Fexinidazole and its sulphone and sulphoxide metabolites were […]
determined by LC-MS-MS method following plasma protein precipitation. The lower limit […]
of quantification of the bioanalytical method was 5 ng/mL for all analytes. Bioanalytical data […]
Details of the bioanalytical method used are reported in Appendix 2 and analytical […]
performances of calibration standards are reported in Appendix 3.
4.4. Pharmacokinetic Calculations
Pharmacokinetic evaluations of Fexinidazole and sulphone and sulphoxide metabolites were […]
For the calculations, the pre-dose concentrations of Fexinidazole were set equal to C0.083 […]
after IV administration, whilst the pre-dose concentrations of Fexinidazole after oral […]
administration and the pre-dose concentrations of the metabolites after both doses were set […]
Nerviano Medical Sciences
After IV and oral dosing, Cmax (C0.083 for Fexinidazole after IV dosing) and tmax of each […]
concentration. After both doses, for each compound, the area under plasma concentration vs. […]
last detectable concentration. The half-life of the terminal phase, t1/2,z, was determined by […]
linear regression analysis of the natural-log concentration vs. time curve, where t1/2,z = […]
ln(2)/slope of the regression line. […]
infinite time, AUC0-∞, was determined as
AUC0- ∞ = AUC0 − t(last) + Ct(last)⋅ […]
The fraction of AUC0-∞ accounted for by the extrapolated area under the curve was […]
%EXTt (last)− 0∞=100⋅AUCt(last)−∞
After IV dosing, plasma clearance and volume of distribution at steady state of Fexinidazole […]
were calculated as follows:
Vss = CL⋅MRT, where MRT is the mean residence time.
Absolute bioavailability of Fexinidazole was calculated from the ratio of individual oral to […]
IV dose-normalized AUC0-t(last) and AUC0-∞ values.
After both doses, Cmax and AUC values of each compound were also normalized to a 1 […]
pharmacokinetic parameters sorted by compound and route of dosing.
Plasma concentrations and pharmacokinetic parameters of each compound were reported to […]
three significant figures.
5.1.1. Clinical and Physical Examinations
Individual clinical signs are reported in Appendix 4. […]
treatments with Fexinidazole. No meaningful clinical signs were recorded during wash out

L-6 rat myoblast cells = test: Cytotoxicity assay; type: cell-based; conditions: 72 h, read-out: IC50
Experimental: (§1) 10 µL of Alamar Blue was added for the final 3 h to determine viability. […] The IC50 values were calculated from the sigmoidal inhibition curves. For cytotoxicity, 4×10^4/mL L-6 rat skeletal myoblast cells were used, and incubations and assessments carried out as above.

[2] = Mouse brain concentrations; type: in vivo; conditions: for concentration at 60 min / concentration at 30 min: oral, 25 mg/kg; for concentration at 60 min / concentration at 30 min / Brain concentration: fexinidazole 25 mg/kg po; for Brain homogenate concentration: fexinidazole 1 mg/kg iv
Experimental: Following sacrifice, the cranium of mice was opened and the brain removed. Excess blood was washed from the brain with distilled water and any excess fluid blotted on absorbent paper. The brain was then snap frozen using liquid nitrogen and placed into a suitably labelled container and stored at approximately −70°C, pending analysis. Brains were homogenized and extracted samples were prepared appropriately for analysis via liquid chromatography-mass spectrometry (LC-MS).
BioDynamics Study No: DND/01
Two groups of female mice were dosed as follows:
Number Treatment Dose (mg/kg) Route
All doses are expressed as free base
Intravenous doses were administered into a lateral tail vein using an appropriately sized syringe and 25G needle and the oral formulation by oral gavage using a polypropylene gavage tube. All doses were given as a single bolus dose at a constant dose volume of 10.0 mL/kg.
1.6 Blood sample collection
At each sampling time point, three animals in each treatment group were deeply anaesthetised using isoflurane and blood samples (approximately 1 mL) taken into individual heparinised tubes by cardiac puncture, following which the animals were killed by cervical fracture. Samples were collected at the following times post-dose:
Following collection, the blood samples were centrifuged (approximately 10000 g, 2 min at 4 °C) and the plasma retained as one aliquot at approximately -70°C prior to analysis of test material concentrations at BioDynamics by LC-MS/MS.
1.7 Collection of terminal brain samples
Following collection of the terminal blood sample the cranium of each mouse was carefully opened and the brain removed. Excess blood was washed from the brain with distilled water and any excess fluid blotted on absorbent paper. The brain was then snap frozen using liquid nitrogen and placed into a suitably labelled container and stored frozen at approximately -70°C pending analysis.
All of the plasma samples together with the brains from the 15 minute time point were analysed for concentrations of the test material and its sulfone and sulfoxide metabolites. In addition the brains from the 5 and 30 minute time points for the intravenously treated and the 30 and 60 minute time points for the orally treated animals were analysed for concentrations of Fexinidazole and its sulfone and sulfoxide metabolites using an LC-MS/MS method developed at BioDynamics.
All samples were treated as temperature sensitive. Blood samples were collected onto wet ice, followed by centrifugation at 4 °C. Plasma and brain samples were snap frozen on dry ice (plasma) or liquid nitrogen (brains) prior to long term storage at less than -70 °C pending analysis.

[3] = Mouse pharmacokinetics after 5-day oral dosing
Experimental: The study was conducted according to the study protocol [1].
gavage daily for 5 consecutive days at a dose of 200 mg/kg in a 5 % tween 80/ 0.5 %
Formulation Preparation and Concentration Check
were prepared according to the procedure already developed [2]; a sufficient volume of each
suspension was prepared in order to support the 5-day repeated oral administration. The
suspensions were stored at +4°C. The supportive stability data for the Fexinidazole
suspension after 7 days at +4°C was performed.
a specific, not validated, HPLC-UV method [2]. Three samples were analyzed for each
About 0.05-0.07 mL of blood/sampling time were taken from the saphenous vein using
heparinized tubes (pre-cooled in an ice/water bath) and were centrifuged at 10000g for 3
minutes at 4°C. The separated plasma was stored at -80°C until analysis. Blood was taken at
validated LC-MS-MS methods.
Pharmacokinetic evaluation was carried out using a non-compartmental approach with the
aid of the Watson package (v. 6.4.0.04, Thermo Fisher Scientific, Waltham, MA, USA).
For the calculations, pre-dose concentrations of both compounds were set equal to zero.
After both compounds, on Day 5, Cmax and tmax were read from the raw plasma data as the
coordinates of the highest measured concentration. The area under plasma concentration vs.
time curve to finite time, AUC0-t(last), was determined by the linear trapezoidal rule up to the
Descriptive statistics (mean ± SD, %CV) were reported for plasma concentrations and
pharmacokinetic parameters sorted by compound.
reported to three significant figures.
Plasma concentrations of sulphoxide and sulphone Fexinidazole metabolites were determined
by a LC-MS-MS method. The lower limit of the bioanalytical method was 5 ng/mL (run 1)
(v. 6.4.0.04, Thermo Fisher Scientific, Waltham, MA, USA).
Pharmacokinetic evaluations of the sulphone and sulphoxide metabolites were carried out
using non-compartmental approach with the aid of the Watson package (v. 6.4.0.04, Thermo
Fisher Scientific, Waltham, MA, USA).
After both doses, for the calculations, the pre-dose concentrations of the metabolites were set
Cmax and tmax were read from raw data as the coordinates of the highest measured

[4] = tested on: T. b. rhodesiense (STIB 900); test: In vitro trypanocidal assay (Alamar Blue); type: cell-based, Trypanosoma brucei rhodesiense; conditions: Trypanosoma brucei, 72 h; read-out: IC50
Experimental: as §1

[5] = male, Beagle, fexinidazole 1 mg/kg IV
[6] = male, Beagle, fexinidazole 10 mg/kg oral
[7] = fexinidazole 200 mg/kg/day po, Day 5
[8] = male, NMRI, mouse, plasma, po, 200 mg/kg/day

## Cn1c([N+](=O)[O-])cnc1COc1ccc(S(C)(=O)=O)cc1 [Fexinidazole sulfone]
[1]; fexinidazole 1 mg/kg IV, male Beagle dogs, read-out: Cmax (C0.083 for parent)
  Cmax: 681 ± 162 ng/mL
[1]; [5]
  Tmax: 4.67 h
  AUC(0-t): 5.27 ± 1.23 µg·h/mL
[1]; [6]
  Tmax: 6.67 h
  AUC(0-t): 44.7 ± 3.81 µg·h/mL
[1]; male, Beagle, fexinidazole 10 mg/kg oral, read-out: Cmax
  Cmax: 3260 ± 762 ng/mL
L-6 rat myoblast cells
  IC50: > 90 µg/mL and > 289 µM
[2]; female, NMRI, mouse, brain homogenate, 60 min, read-out: Brain homogenate concentration
  concentration at 60 min: 394 ng/mL
[2]; female, NMRI, mouse, brain, 30 min, read-out: Brain concentration
  concentration at 30 min: 468 ng/g
[2]; female, NMRI, mouse, brain, 30 min, read-out: Brain homogenate concentration
  concentration at 30 min: 156 ng/mL
[2]; female, NMRI, mouse, brain, 60 min, read-out: Brain concentration
  concentration at 60 min: 1180 ng/g
[2]; female, NMRI, mouse, brain, iv 1 mg/kg, 5 min, read-out: Mean plasma:brain ratio (plasma = 1.00)
  Kp at 5 min: 0
[2]; female, NMRI, mouse, brain, iv 1 mg/kg, 30 min, read-out: Mean plasma:brain ratio (plasma = 1.00)
  Kp at 30 min: 0
[2]; female, NMRI, mouse, brain, po 25 mg/kg, 30 min, read-out: Mean plasma:brain ratio (plasma = 1.00)
  Kp at 30 min: 0.05
[2]; female, NMRI, mouse, brain, po 25 mg/kg, 60 min, read-out: Mean plasma:brain ratio (plasma = 1.00)
  Kp at 60 min: 0.06
[2]; 5 min
  Brain homogenate concentration: BLQ
[2]; 30 min
  Brain homogenate concentration: BLQ
  Brain concentration: 469 ± 222 ng/g
[2]; 60 min
  Brain concentration: 1183 ± 322 ng/g
[3]; [7]
  AUC0-tlast: 1050 µg·h/mL
  AUC0-∞: 1060 µg·h/mL
[3]; [8]
  Cmax: 77600 ng/mL
  Tmax: 3 h
  half-life: 2.75 h
[4]
  IC50: 0.35 µg/mL to 0.4 µg/mL and 1.14 µM to 1.3 µM
